Experimental data taken from US12097210B2, “Concomitant administration of glucocorticoid receptor modulators and CYP3A inhibitors” (Corcept Therapeutics, Inc., priority 2017, dated 2024).

Columns and labels:
[1] = Example 2: PK of ketoconazole 400 mg single dose on Day 8 of mifepristone regimen; assay type: in vivo, human; details: single 400 mg ketoconazole dose on Day 8
Description: (§1) Subjects were discharged on Day 11.
(§2) Subjects were discharged on Day 11. Subjects in both cohorts returned to study center on Day 13 for safety monitoring, collection of the 120-hour PK draw, and completion of the Termination Visit procedures, followed by discharge from the study. To the extent possible, any adverse events deemed study drug-related and that were ongoing at the time of discharge from the study were followed-up to resolution or until a determination was made that the unresolved event was stable.
(§3) DURATION OF TREATMENT: Up to a total of 28 days, including up to 2 weeks screening, dosing on Days 1-8, safety observation, and PK sample collection through Day 13.
(§4) Additionally, comparisons were made between the PK results of cohort 1 and 2. Pharmacokinetic parameters Cmax, T½ and total AUC were calculated for plasma concentrations of ketoconazole following the single dose on Day 8. Descriptive statistics (count, mean, median, standard deviation, minimum, maximum, and % coefficient of variation) were provided. Ketoconazole concentrations were listed and summarized. GM means of Cmax and total AUC were compared for the single dose in this study to the combined data of reported 400 mg single doses of ketoconazole of healthy subjects from the literature.

[2] = Example 3: effect of co-administration with mifepristone on ketoconazole PK; assay type: in vivo, human
Procedure: (§5) A single dose of ketoconazole was administered on Day −1.
(§6) The study was a two period study design.

[3] = system: CYP3A; details: 38 published studies, 411 subjects; concomitantly administered CYP3A inhibitor; cited from earlier work
[4] = clinical; details: male, human, in vivo
Procedure: This study was conducted in accordance with Good Clinical Practice under the guidance of an Institutional Review Board and in accordance with applicable local legal and regulatory requirements.
KORLYM® was supplied in 300 mg tablets for oral administration. Three or four tablets were administered once daily (OD) to provide either the 900 mg or 1200 mg per day dose.
Itraconazole was supplied • in 100 mg capsules for oral administration. Two capsules were administered once daily (OD) to provide the 200 mg per day dose.
All drug administrations were oral and were given after the morning meal.
The inclusion criteria required, among other criteria, that the subjects be healthy male subjects between the ages of 18 and 65, weigh more than 110 pounds, and have a body mass index (BMI) of 18 to 32 kg/m^2. The design included a Screening Period of up to 3 weeks (subjects were screened at a time between days −21 to −1 prior to the first treatment period), three 14-day treatment periods, and a Follow-Up (FU) Period of 14 days for safety observation.
Subjects meeting the inclusion criteria (n=22) were administered drug daily and blood samples were taken on the days indicated below during Periods 1-3 and on day 43 of the follow-up period.
Subjects presented at the Clinical Research Unit (CRU) after an 8-hour overnight fast, then predose PK samples were taken and other evaluations (predose electrocardiograms (ECGs), plasma cortisol and ACTH, serum chemistry tests) were performed. […] On the specific days indicated above, additional blood draws for determining 24-hour PK profiles were performed.
Pharmacokinetic (PK) parameters measured and computed included AUC (area under the concentration−time curve), AUC0-24 (AUC values from time 0 to 24 hours postdose), Cmax (maximum concentration), and Css (average steady-state concentration, calculated as AUC0-24/24).

[5] = Example 3: effect of ketoconazole 200 mg twice daily on PK of mifepristone 600 mg once daily and metabolites, with food; assay type: in vivo, human; details: for concentrations on Day 17 compared with Day 12: 600 mg mifepristone daily with 200 mg ketoconazole twice daily vs mifepristone alone; for Ratio % Test/Reference, AUC0-24 / Ratio % Test/Reference, Cmax: Test: Day 17, 600 mg mifepristone OD + 200 mg Ketoconazole BID, Reference: Day 12, 600 mg mifepristone OD, geometric mean ratio
Procedure: as §5, §6
Concentrations of RU 42633 and RU 42848 were similar on Day 17 and Day 12.

[6] = Example 3: cross-study comparison of exposure with historic study of 1200 mg mifepristone OD; assay type: in vivo, human; details: Test: Day 17, 600 mg mifepristone OD + 200 mg Ketoconazole BID; Reference: historic study Day 7, 1200 mg mifepristone OD alone; after 34% fat meal
[7] = Example 2: effect of a 400 mg single dose of ketoconazole on PK of an 8-day regimen of 300 mg or 600 mg OD mifepristone after moderate fat breakfast; assay type: in vivo, human; details: 300 or 600 mg OD mifepristone
Procedure: This was an open-label study in healthy male subjects. […] The 400 mg single dose of ketoconazole was given to all subjects on day 8.
METHODOLOGY: Twelve subjects were enrolled, six in Cohort 1 and 6 in Cohort 2.
as §1, §2
DIAGNOSIS AND MAIN […] FOR INCLUSION: Healthy male volunteers between the ages of 18 to 45 years of age with a body mass index (BMI) ranging between 19 and 32 kg/m2 and a weight of at least 60 kg (132 lbs) were enrolled. Subjects had no clinically significant abnormal findings on the physical examination, ECG, blood pressure, heart rate, medical history, or clinical laboratory results during screening. The QTc interval at screening was less than 450 msec.
as §3, §4

[8] = 400 mg ketoconazole (200 mg twice per day) with 600 mg mifepristone per day
[9] = Test: Day 17, 600 mg mifepristone OD + 200 mg Ketoconazole BID, Reference: Day −1, 200 mg Ketoconazole single dose
[10] = 600 mg mifepristone OD + 200 mg ketoconazole BID

Row | Structure (SMILES) | AUC(0-t) ([4]; 900 mg) | Cmax ([4]; 900 mg) | AUC(0-t) ([4]; 1200 mg) | Cmax ([4]; 1200 mg) | change in exposure on co-administration with ketoconazole [5, 10] | concentrations on Day 17 compared with Day 12 [5] | Ratio % Test/Reference, AUC0-24 [5] | Ratio % Test/Reference, Cmax [5] | Ratio % Test/Ref, AUC0-24 [6] | Ratio % Test/Ref, Cmax [6] | increase of plasma levels (AUC) of orally administered midazolam [3] | further results
1 | CC(=O)N1CCN(c2ccc(OCC3COC(Cn4ccnc4)(c4ccc(Cl)cc4Cl)O3)cc2)CC1 (stereo not drawn) [Ketoconazole, 1-acetyl-4-[4-[[2-(2,4-dichlorophenyl)-2-[(1H-imidazol-1-yl)-methyl]-1,3-dioxolan-4-yl]methoxy]phenyl]piperazine] | – | – | – | – | – | – | – | – | – | – | more than 11 fold | ketoconazole half-life on either mifepristone regimen [1]: not appreciably different; increase in ketoconazole AUC with concomitant mifepristone [2, 8]: 253%; increase in ketoconazole Cmax with concomitant mifepristone [2, 8]: 365%; Ratio % Test/Reference, AUC [2, 9]: 365.36%; Ratio % Test/Reference, Cmax [2, 9]: 252.71%
2 | CC[C@H]1OC(=O)[C@H](C)[C@@H](O[C@H]2C[C@@](C)(OC)[C@@H](O)[C@H](C)O2)[C@H](C)[C@@H](O[C@@H]2O[C@H](C)C[C@H](N(C)C)[C@H]2O)[C@](C)(OC)C[C@@H](C)C(=O)[C@H](C)[C@@H](O)[C@]1(C)O [clarithromycin] | – | – | – | – | – | – | – | – | – | – | more than 6 fold | –
3 | CCC(C)n1ncn(-c2ccc(N3CCN(c4ccc(OCC5COC(Cn6cncn6)(c6ccc(Cl)cc6Cl)O5)cc4)CC3)cc2)c1=O (stereo not drawn) [itraconazole] | – | – | – | – | – | – | – | – | – | – | more than 7 fold | –

Further lines, with some results ahead:

Row | AUC(0-t) ([4]; 900 mg) | Cmax ([4]; 900 mg) | AUC(0-t) ([4]; 1200 mg) | Cmax ([4]; 1200 mg) | change in exposure on co-administration with ketoconazole [5, 10] | concentrations on Day 17 compared with Day 12 [5] | Ratio % Test/Reference, AUC0-24 [5] | Ratio % Test/Reference, Cmax [5] | Ratio % Test/Ref, AUC0-24 [6] | Ratio % Test/Ref, Cmax [6] | Structure (SMILES) | increase of plasma levels (AUC) of orally administered midazolam [3] | further results
4 | 40300 ng·h/mL | 1970 ng/mL | 45800 ng·h/mL | 2160 ng/mL | little change in exposure | similar | 102.33% | 105.73% | 91.34% | 96.31% | CC#C[C@]1(O)CC[C@H]2[C@@H]3CCC4=CC(=O)CCC4=C3[C@@H](c3ccc(NC)cc3)C[C@@]21C [RU 42633, (8S,11R,13S,14S,17S)-17-hydroxy-13-methyl-11-[4-(methylamino)phenyl]-17-prop-1-ynyl-1,2,6,7,8,11,12,14,15,16-decahydrocyclopenta[a]phenanthren-3-one] | – | –
5 | 15100 ng·h/mL | 755 ng/mL | 16900 ng·h/mL | 853 ng/mL | – | higher | 166.86% | 169.13% | 118.18% | 116.55% | CN(C)c1ccc([C@H]2C[C@@]3(C)[C@@H](CC[C@@]3(O)C#CCO)[C@@H]3CCC4=CC(=O)CCC4=C32)cc1 [RU 42698, (8S,11R,13S,14S,17S)-11-[4-(dimethylamino)phenyl]-17-hydroxy-17-(3-hydroxyprop-1-ynyl)-13-methyl-1,2,6,7,8,11,12,14,15,16-decahydrocyclopenta[a]phenanthren-3-one] | – | mean metabolite exposure compared with mifepristone [7]: lower; mean increase in exposure on co-administration with ketoconazole [5, 10]: approximately 70%; share of the total steady-state AUC0-24 of mifepristone, RU42633, RU42698, RU42848 ([5]; in the presence of ketoconazole): 13%; share of the total steady-state AUC0-24 of mifepristone, RU42633, RU42698, RU42848 ([5]; mifepristone alone): 9%
6 | 33900 ng·h/mL | 1630 ng/mL | 36500 ng·h/mL | 1770 ng/mL | little change in exposure | similar | 94.88% | 95.48% | 81.43% | 82.45% | CC#C[C@]1(O)CC[C@H]2[C@@H]3CCC4=CC(=O)CCC4=C3[C@@H](c3ccc(N)cc3)C[C@@]21C [RU 42848, (8S,11R,13S,14S,17S)-11-(4-aminophenyl)-17-hydroxy-13-methyl-17-prop-1-ynyl-1,2,6,7,8,11,12,14,15,16-decahydrocyclopenta[a]phenanthren-3-one] | – | trough concentrations through the start of ketoconazole administration (Day 13) ([5]; FIG. 1, 600 mg mifepristone OD): increasing day-by-day
